{
  "source": "paper PMC9026148",
  "about": "“Pre-Clinical Study Evaluating Novel Protein Phosphatase 2A Activators as Therapeutics for Neuroblastoma” (Cancers, 2022)",
  "experiment": "Plasma levels after oral dose in mice",
  "assay_type": "in vivo, mouse",
  "details": "male ICR mice, bolus oral dose 50 mg/kg in 1:1:8 DMA:Solutol:water; compared to DBK-1154",
  "experimental": "Blood aliquots were collected via cardiac puncture (300 µL) sampling from anesthetized mice in tubes coated with lithium heparin, mixed gently, then kept on ice and centrifuged at 2500× g for 15 min at 4 °C, within 1 h of collection. The plasma was harvested and kept frozen at −70 °C until further processing.\nThe plasma samples were processed using protein precipitation and analyzed by LC-MS/MS. A plasma calibration curve was generated. Aliquots of drug-free plasma were spiked with the test articles at the specified concentration levels. The spiked plasma samples were processed together with the unknown plasma samples using the same procedure. The processed plasma samples were placed in the autosampler until the LC-MS/MS analysis, at which time peak areas were recorded, and the concentrations of the test articles in the unknown plasma samples were determined using the respective calibration curve. The reportable linear range of the assay was determined, along with the lower limit of quantitation (LLOQ).\nPlots of plasma concentration of test articles, ATUX-792 and DBK-1154, vs. time are constructed and shown in Supplementary Figure S2.\nlevels compared to DBK -1154. Serum concentration after bolus oral dose of 50 mg/kg in\n1:1:8 DMA:Solutol:water (3 animals per time point). Blood aliquots were collected via car- […]\nquantitative bioanalysis. […]",
  "data": [
    {"smiles": "O=S(=O)(N[C@H]1COC[C@@H](n2c3ccc(Cl)cc3c3cc(Cl)ccc32)[C@@H]1O)c1ccc(OC(F)(F)F)cc1", "note": "[ATUX-792]", "values": [
      {"measurement": "oral bioavailability / plasma levels", "value": "good oral bioavailability"}
    ]}
  ]
}
